# Measured values: ChEMBL document CHEMBL5604063, “ASAP - DENV-2 NS2B-NS3 protease fluorescence dose response” (2024)
# “And” between values parts separate entries of the source, which are not always exact repeats. Equal entries are not always repeated. Peptide text beside a SMILES is read from it. * marks the point of attachment. pNA = O=[N+]([O-])c1ccc(N*)cc1
# Target: Genome polyprotein (dengue virus type 2, UniProt P29990)
# Assay type: functional, Thailand/16681/1984
# Genome polyprotein, sequence (P29990 1346-1475 limits assumed): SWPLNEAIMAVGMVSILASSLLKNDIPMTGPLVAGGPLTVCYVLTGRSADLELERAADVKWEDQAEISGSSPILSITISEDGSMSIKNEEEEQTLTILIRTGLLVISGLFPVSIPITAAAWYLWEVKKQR
# Genome polyprotein, sequence (P29990 1476-2093 limits assumed): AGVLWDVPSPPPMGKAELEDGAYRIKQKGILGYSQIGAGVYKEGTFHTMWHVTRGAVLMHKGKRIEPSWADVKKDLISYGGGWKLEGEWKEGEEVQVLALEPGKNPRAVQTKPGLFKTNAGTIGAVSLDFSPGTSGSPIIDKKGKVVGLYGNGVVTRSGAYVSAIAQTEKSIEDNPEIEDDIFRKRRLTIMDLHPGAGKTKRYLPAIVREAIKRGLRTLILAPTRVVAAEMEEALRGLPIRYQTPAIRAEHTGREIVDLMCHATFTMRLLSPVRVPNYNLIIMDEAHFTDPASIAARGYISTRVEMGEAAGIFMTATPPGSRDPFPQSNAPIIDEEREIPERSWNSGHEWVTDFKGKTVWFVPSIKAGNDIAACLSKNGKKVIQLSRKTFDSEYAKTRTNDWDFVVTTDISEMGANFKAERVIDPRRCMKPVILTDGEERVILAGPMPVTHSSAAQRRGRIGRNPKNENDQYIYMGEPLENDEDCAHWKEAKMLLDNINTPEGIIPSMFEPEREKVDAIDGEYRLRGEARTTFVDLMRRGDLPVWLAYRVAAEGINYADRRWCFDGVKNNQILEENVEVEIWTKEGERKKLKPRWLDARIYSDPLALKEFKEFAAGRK
row,Structure (SMILES),IC50
1,NCCc1ccc(CNC(=O)[C@@H](NC(=O)OCc2ccccc2)c2ccc(OCc3ccccc3)cc2)cc1,21.2 µM and 21.7 µM
2,CC(=O)N1CCN([C@H]2CC[C@H](NS(=O)(=O)c3ccc(Cl)cc3C(=O)O)CC2)CC1,> 99.5 µM
3,Cc1cc(C)cc(C(=O)N2CCC(NS(=O)(=O)c3ccc(Cl)cc3C(=O)O)CC2)c1,> 99.5 µM
4,COc1cc(Cc2c(-c3ccc(F)cc3)noc2C)nc(N2CCNCC2)n1,> 99.5 µM
5,NS(=O)(=O)c1ccc(N2CCC=C(c3cccc(O)c3)C2)c2ncccc12,> 99.5 µM
6,O=C(O)c1cc(Cl)ccc1NS(=O)(=O)c1ccc(Oc2ccccc2Cl)cc1,13.8 µM
7,C[C@H]1COCCN1C(=O)c1cc(Cl)ccc1NS(=O)(=O)c1ccc(Oc2ccccc2Cl)cc1,95.6 µM
8,NCCNC(=O)c1cc(Cl)ccc1NS(=O)(=O)c1ccc(Oc2ccccc2Cl)cc1,> 99.5 µM
9,O=C(O)c1cc(Cl)ccc1S(=O)(=O)NC1CCN(S(=O)(=O)c2ccc(I)cc2)CC1,81.7 µM
10,O=C(N[C@@H](C(=O)NCc1cccc2c1CCNC2)c1ccc(OCc2ccccc2)cc1)OCc1ccccc1,53.5 µM
11,COc1ccc(F)cc1-c1ccc(S(=O)(=O)Nc2cc(Cl)cc(C(=O)O)c2)cc1,89.9 µM
12,O=c1ccc(-n2cncn2)nn1CC=Cc1ccccc1,> 99.5 µM
13,Cn1ncc2cc(C(=O)N3CCC(NC(=O)[C@]4(C)CCC[C@H]4O)CC3)cc(O)c21,> 99.5 µM
14,NCc1cccc(NC(=O)[C@H](NC(=O)OCc2ccccc2)c2ccc(Br)c(Cl)c2)c1,11 µM and 8.42 µM and 6.79 µM and 9.88 µM and 12.5 µM and 8.05 µM
15,O=C(N[C@@H](C(=O)NCc1ccc(CN2CCCC2)cc1)c1ccc(OCc2ccccc2)cc1)OCc1ccccc1,> 99.5 µM
16,NCc1cccc(NC(=O)[C@@H](NC(=O)OCc2ccccc2)c2ccc(-c3cccc4c3CCO4)cc2)c1,27.8 µM
17,O=C(O)Cc1cc(NS(=O)(=O)c2ccc(Oc3ccccc3Cl)cc2)ccc1Cl,96.1 µM
18,CCn1c(=O)c(N2C[C@H]3C[C@@H](O)CC[C@H]3C2)nc2ccccc21,> 99.5 µM
19,NCc1ccc(C[C@H](NC(=O)OCc2ccccc2)C(=O)Nc2cccc(CN)c2)cc1,> 99.5 µM
20,Cc1cccnc1COc1ccc(S(=O)(=O)Nc2ccc(Cl)cc2C(=O)O)cc1,> 99.5 µM
21,NCc1cccc(NC(=O)[C@H](NS(=O)(=O)c2ccc(Oc3ccccc3Cl)cc2)c2ccc(OCc3ccccc3)cc2)c1,> 99.5 µM
22,Cc1sc2nc(-c3cccs3)[nH]c(=O)c2c1C,> 99.5 µM
23,O=C(N[C@H](C(=O)NCc1cccc(CC(F)(F)F)c1)c1ccc(OCc2ccccc2)cc1)OCc1ccccc1,> 99.5 µM
24,NCc1cccc(NC(=O)[C@@H](NC(=O)OCc2ccccc2)c2ccc(C(F)(F)F)cc2)c1,64.3 µM
25,N=C(N)NCc1ccc(OC(=O)Nc2ccccc2)cc1,> 99.5 µM
26,CCn1c(=O)c(N2C[C@H]3CN(C)CC[C@H]3C2)nc2ccccc21,> 99.5 µM

row,Structure (SMILES),IC50
1,NCc1cccc(NC(=O)C[C@H](NC(=O)OCc2ccccc2)c2ccc(Br)cc2)c1,51.8 µM
2,NCC1(c2ccc(C(=O)N3CCc4scc(Br)c4C3)cc2)CC1,> 99.5 µM
3,CN(C)c1cc(-c2ccc(S(=O)(=O)Nc3ccc(Cl)cc3C(=O)O)cc2)ccn1,87.6 µM
4,NCc1ccc(-c2ncc(OCC3CCNCC3)nc2-c2ccc(-c3ccoc3)cc2)cc1,> 99.5 µM
5,O=C(O)c1cc(Cl)ccc1NS(=O)(=O)c1ccc(OCc2ccncc2)cc1,> 99.5 µM
6,NCc1cccc(NC(=O)[C@@H](NC(=O)OCc2ccccc2)c2ccc(-c3ccc(N)nc3)cc2)c1,> 99.5 µM
7,NCc1cccc(C(=O)Nc2cc(Cl)cc(NC(=O)OCc3ccccc3)c2)c1,67.5 µM
8,N#Cc1ccc(OCCn2nnn(-c3ccccc3)c2=O)cc1,> 99.5 µM
9,CCc1n[nH]cc1-c1cccc([C@H](NC(=O)OCc2ccccc2)C(=O)Nc2cccc(CN)c2)c1,> 99.5 µM
10,NCc1cccc(NC(=O)[C@@H](NC(=O)OCc2ccccc2)c2ccc(-c3ccc4scnc4c3)cc2)c1,42.9 µM
11,CN1CCc2ccc(C(=O)N3CCNc4ccccc4C3)cc2C1,> 99.5 µM
12,CN(c1ncnc(-c2ccsc2C=O)n1)C1CCNCC1,> 99.5 µM
13,CN(CCS(N)(=O)=O)C(=O)c1cc(Cl)ccc1NS(=O)(=O)c1ccc(Oc2ccccc2Cl)cc1,84 µM
14,CCOCC(=O)N[C@H](C(=O)Nc1cccc(CN)c1)c1ccc(OCc2ccccc2)cc1,> 99.5 µM
15,O=c1c2ccccc2ncn1CCCn1cnc2ccccc2c1=O,> 99.5 µM
16,CCn1ccc(-c2ccc([C@@H](NC(=O)OCc3ccccc3)C(=O)Nc3cccc(CN)c3)cc2)n1,> 99.5 µM
17,NCc1cccc(NC(=O)C[C@@H](NC(=O)OCc2ccccc2)C2CCCCC2)c1,45.2 µM and 44.4 µM
18,NCc1cccc(NC(=O)[C@H](NC(=O)c2ccncc2)c2ccc(OCc3ccccc3)cc2)c1,> 99.5 µM
19,Clc1snnc1CN1CCC(c2nc3ccccc3o2)CC1,> 99.5 µM
20,NCc1cccc(NC(=O)[C@@H](NS(=O)(=O)C[C@H]2CCCCO2)c2ccc(OCc3ccccc3)cc2)c1,> 99.5 µM
21,Cn1cnc2c1CN(Cc1ccc3c(c1)CCNCC3)CC2,> 99.5 µM
22,Cc1c(NC(=O)OCc2ccccc2)cc(C(F)(F)F)cc1C(=O)Nc1cccc(CN)c1,51.4 µM
23,O=C(O)c1cc(Cl)ccc1NS(=O)(=O)c1ccc(Br)cc1,> 99.5 µM
24,CCCC[C@H](NC(=O)OC(C)(C)C)C(=O)N[C@H](C(=O)NCc1ccc(C(N)=O)cc1)c1ccc(OCc2ccccc2)cc1,> 99.5 µM
25,Cc1cc(C)n(-c2ccc(NS(=O)(=O)c3ccc(Cl)cc3C(=O)O)cc2)n1,> 99.5 µM
26,O=C(O)c1cc(Cl)ccc1S(=O)(=O)N[C@H]1CCn2c(nnc2C(F)(F)F)C1,> 99.5 µM

row,Structure (SMILES),IC50
1,CC(C)c1cc(S(=O)(=O)N[C@H](C(=O)Nc2cccc(CN)c2)c2ccc(OCc3ccccc3)cc2)on1,> 99.5 µM
2,Cc1nccn1-c1ccc(NS(=O)(=O)c2ccc(Cl)cc2C(=O)O)cc1F,> 99.5 µM
3,Cc1ccc([C@@H](NC(=O)OCc2ccccc2)C(=O)Nc2cccc(CN)c2)cc1C,> 99.5 µM
4,CCn1ccnc(-n2cc([C@@H]3NC(=O)NC3=O)c3ccccc32)c1=O,> 99.5 µM
5,Nc1nc(S(=O)(=O)c2ccccc2)c(Cl)s1,> 99.5 µM
6,NCc1nccc(NC(=O)c2cc(Cl)cc(NC(=O)OCc3ccccc3)c2)n1,> 99.5 µM
7,CC(C)n1cc(CNC(=O)[C@@H](NC(=O)OCc2ccccc2)c2ccc(OCc3ccccc3)cc2)cn1,> 99.5 µM
8,NCc1cccc(NC(=O)c2cc(F)cc(NC(=O)OCc3ccccc3)c2F)c1,> 99.5 µM
9,O=C(O)c1cc(Cl)ccc1S(=O)(=O)Nc1ccc(C(=O)N2CCCCC2)cc1,> 99.5 µM
10,O=C(Nc1ccc2c(c1)CNC2)c1cc(F)c2[nH]nnc2c1,> 99.5 µM
11,O=C(Nc1ccc2c(c1)CNC2)c1cc(Cl)ccc1SC1CCCC1,> 99.5 µM
12,NCc1cccc(NC(=O)[C@@H]2CCC[C@H](NC(=O)OCc3ccccc3)C2)c1,> 99.5 µM
13,Brc1nc(Br)n(Cc2cscn2)n1,> 99.5 µM
14,N#Cc1ccc2[nH]cc(CN3CCC(c4cscn4)CC3)c2c1,> 99.5 µM
15,O=C(Nc1cccnc1)C1CCN(Cc2c[nH]c3ccccc23)CC1,> 99.5 µM
16,N=C(N)Nc1ccc(OC(=O)Nc2ccccc2)cc1,> 99.5 µM
17,CS(=O)(=O)c1cncc(-c2cccc([C@H](NC(=O)OCc3ccccc3)C(=O)Nc3cccc(CN)c3)c2)c1,71.4 µM
18,COC(=O)[C@H](C)n1cc2c(C(=O)Nc3ccc4c(c3)CNC4)cc(Cl)cc2n1,> 99.5 µM
19,O=C(N[C@@H](C(=O)Nc1ncc([C@H]2CCCN2)s1)c1ccc(OCc2ccccc2)cc1)OCc1ccccc1,> 99.5 µM
20,CCn1c(=O)c(N2C[C@H]3OCCN(C(C)=O)[C@H]3C2)nc2ccccc21,> 99.5 µM
21,CN(C)Cc1cncc(NC(=O)[C@@H](NC(=O)OCc2ccccc2)c2ccc(OCc3ccccc3)cc2)c1,> 99.5 µM
22,O=C(Cn1ccnc(N2CC[C@H](CO)C2)c1=O)Nc1ccccc1,> 99.5 µM
23,O=S(=O)(Nc1ccc(Cl)cc1CN(CC1CC1)CC1CC1)c1ccc(Oc2ccccc2Cl)cc1,67.1 µM
24,Cn1ccnc1C(=O)N[C@H](C(=O)Nc1cccc(CN)c1)c1ccc(OCc2ccccc2)cc1,> 99.5 µM
25,CSCC[C@H](N)C(=O)N1CCC[C@H]1C(=O)Nc1ccc([N+](=O)[O-])cc1 (H-Met-Pro-pNA),> 99.5 µM
26,COc1cc2c(CN3CCC(c4cscn4)CC3)c[nH]c2cc1Cl,> 99.5 µM

row,Structure (SMILES),IC50
1,C[C@H]1CN(C(=O)c2cccc3c(CN)cccc23)CCC12CCNCC2,> 99.5 µM
2,O=C(O)c1cc(Cl)ccc1S(=O)(=O)Nc1ccc(F)c(NC(=O)C2CC2)c1,> 99.5 µM
3,NCc1cccc(NC(=O)[C@@H](NC(=O)OCc2ccccc2)c2cccc(OC[C@H]3CCCO3)c2)c1,> 99.5 µM
4,CCn1cc(-c2ccccc2N)nc(N2CC[C@@H](CO)C2)c1=O,> 99.5 µM
5,c1ccc2c(CN3CCC(c4nn[nH]n4)CC3)c[nH]c2c1,> 99.5 µM
6,COC[C@@H](C)CNC(=O)c1cc(Cl)ccc1NS(=O)(=O)c1ccc(Oc2ccccc2Cl)cc1,> 99.5 µM
7,Cn1nc(C2CCN(C(=O)c3ccccc3CSc3nnc[nH]3)CC2)cc1O,> 99.5 µM
8,COc1ccc(S(=O)(=O)n2nc(OC(=O)c3cccc(-c4ccccc4Cl)c3)cc2N)cc1,> 99.5 µM
9,CC1(C)CNC[C@H](C(=O)Nc2cccc(CN)c2)C1,> 99.5 µM
10,CCn1c(=O)c(N2CC[C@H](c3nccn3C)C2)nc2ccccc21,> 99.5 µM
11,C[C@@H](N)c1ccc(NC(=O)c2cc(Cl)cc(NC(=O)OCc3ccccc3)c2)cc1,48.2 µM
12,CCn1c(=O)c(N2CCC[C@H]2c2ncccn2)nc2ccccc21,> 99.5 µM
13,NC[C@H]1C[C@@H](NC(=O)[C@@H](NC(=O)OCc2ccccc2)c2ccc(OCc3ccccc3)cc2)C1,> 99.5 µM
14,O=Cc1ccc(CC(=O)N2C[C@@H](O)[C@H](N3CCOCC3)C2)cc1,> 99.5 µM
15,N=C(N)NCCc1ccc(OC(=O)Nc2ccccc2)cc1,> 99.5 µM
16,NC[C@H]1CC[C@H](CNC(=O)c2cc(Cl)cc(NC(=O)OCc3ccccc3)c2)CC1,> 99.5 µM
17,Cc1c(C(=O)Nc2cccc(-c3ccc(=O)[nH]n3)c2)cc(C2CC2)n1C,> 99.5 µM
18,c1ccc(C2CCN(Cc3ccc4nccnc4c3)CC2)nc1,> 99.5 µM
19,O=C(NCc1cnn(CCO)c1)c1cccc2c1NC(=O)[C@]1(CCCN1)C2,> 99.5 µM
20,O=C(Nc1ccc2c(c1)CNC2)c1ncc(Br)s1,> 99.5 µM
21,CC1(C)CCC([C@@H](NC(=O)OCc2ccccc2)C(=O)Nc2cccc(CN)c2)CC1,> 99.5 µM
22,CCC1([C@H](NC(=O)OCc2ccccc2)C(=O)Nc2cccc(CN)c2)CCCCC1,> 99.5 µM
23,c1nc(C2CCN(Cc3n[nH]c4c3CCC4)CC2)cs1,> 99.5 µM
